Test results published in patent publication US4912132A, “Novel substances KS-504a, KS-504b, KS-504d and KS-504e and process for their preparation” (Kyowa Hakko Kogyo Co., Ltd., priority 1987, dated 1990).
“Also recorded” adds a separate entry of the source.

Key:
rabbit aorta = assay: inhibition of contraction using extirpated blood vessel preparations (vasodilative activity); details: contraction by 20 mM KCl, added 30 minutes before; for inhibition at 10 µg/mL: final concentration 10.0 μg/ml
Experimental: The vosodilative activity of KS-504a, KS-504b and KS-504d is explained below, referring to Experimental Example 1 on inhibition of contraction using extirpated blood vessel preparations.
White bastard rabbits (male, 2-3 kg) were incised along the abdominal median line. The aorta was cut out with a length of about 2-2.5 cm from the venter, and spiral strips with a width of 3-4 mm were prepared therefrom. The strips were ligated with silk yarn at both ends, and the lower end was connected to a stationary rod, whereas the upper end was connected to a tension transducer (TB-612T, a product of Nippon Koden Co., Ltd.). The strips were suspended under an initial tension of 1.5 g. The strips were soaked in a Krebs-Henseleit solution at 32° C. whose composition in g/l was NaCl: 6.92, KCl: 0.35, MgSO4.7H2 O: 0.29, CaCl2.2H2 O: 0.37, KH2 PO4 : 0.16, NaHCO3 :2.1 and glucose: 1.0 in a Magnus tube, and a gas (95% O2 and 5% CO2) was introduced therein. After being stabilized for 1 to 2 hours, the preparations were used for the experiment. Potassium chloride was added to the Magnus tube to a final concentration of 20 mM. The resulting contraction reaction was recorded on a polygraph (AM-6000, a product of Nippon Koden Co., Ltd.) in equal scales through the tension transducer. KS-504a, KS-504b and KS-504d were each dissolved in dimethyl sulfoxide to a concentration of mg/ml, and the solutions were properly diluted with a Krebs-Henseleit solution and added to the Magnus tube 30 minutes before the application of the contracting
*The rate of inhibition of contraction was calculated according to the
Rate of inhibition of contraction (%)

[1] = minimal lethal dose in mice; type: in vivo; details: p.o.
[2] = solubility and stability in alkaline medium (physicochemical properties); details: for stability in basic substances / alkaline water: basic substances such as pyridine, monoethanolamine, and alkaline water; for Solubility: Also soluble in basic substances: soluble but readily decomposed; for Solubility: Insoluble in: solvents listed as Insoluble; for Solubility: Soluble in: solvents listed as Soluble
[3] = tested on: rat peritoneal exudate cells; assay: inhibition of histamine secretion from rat peritoneal exudate cells; type: cell-based; details: 10 min, phosphatidyl-L-serine and concanavalin A, 37° C, read-out: Rate of suppression of histamine secretion
Experimental: Influence on histamine secretion from rat peritoneal exudate cells
Rats with body weights of 150-180 g were killed under dry ether anesthesia by exsanguination, and mast cell medium prepared according to the method of Sullivan, et al. J. Immunol. 114, 1473 (1975)](hereinafter abbreviated as MCM, composition: 150mM NaCl, 3.7 mM KCl, 3 mM Na2 HPO4, 3.5 mM KH2 PO4, 1 mM CaCl2, 5.6 mM glucose, 0.1% bovine serum albumin, 10 U/ml heparin) was injected intraperitoneally into the animals at 6 ml/animal. The abdominal parts were massaged for two minutes, and then cut open to sample exuded solution in the abdominal cavities. The exuded solution collected from 6 rats was centrifuged a 100×g for 5 minutes at 4° C, and the precipitate was mixed with an appropriate amount of water-cooled MCM, and washed three times to prepare a cell suspension (peritoneal exudate cells, hereinafter abbreviated as PEC) containing mast cells at a final concentration of about 3×10^4 cells/ml. Identification of mast cells was carried out by staining intracellular granules with 0.05% Toluidine Blue. Then, 1 ml of the thus obtained PEC was preincubated at 37° C for 10 minutes, and then admixed with 0.1 ml of test solutions at various concentrations and incubated for 10 minutes. The incubated mixtures were further admixed with 0.1 ml each of 100 μg/ml phosphatidyl-L-serine and 1000 μg/ml concanavalin A, followed by incubation for 15 minutes. The reaction was discontinued by addition of 3 ml of ice-cooled physiological saline solution, and the mixture was centrifuged at 1100×g for 10 minutes at 4° C. to obtain a supernatant and a residue. Histamine contents of the supernatant and the residue were measured by fluorometry according to the method of Komatsu [Allergy 27, 67 (1978)].
The histamine secretion rate was defined by a percentage of histamine content in the supernatant to total histamine content in the cells. The rate of suppression of histamine secretion by the test solution was calculated according to the following equation.
Rate of suppression of secretion (%) [formula]

[4] = Oryctolagus cuniculus, read-out: Rate of inhibition of contraction

Row | Structure (SMILES) | inhibition at 0.1 µg/mL (rabbit aorta; Oryctolagus cuniculus, final concentration 0.1 μg/ml, read-out: Rate of inhibition of contraction) | inhibition at 1 µg/mL (rabbit aorta; Oryctolagus cuniculus, final concentration 1.0 μg/ml, read-out: Rate of inhibition of contraction) | inhibition at 3 µg/mL (rabbit aorta; Oryctolagus cuniculus, final concentration 3.0 μg/ml, read-out: Rate of inhibition of contraction) | minimal lethal dose [1] | stability in basic substances / alkaline water [2] | Solubility: Also soluble in basic substances [2] | Solubility: Insoluble in [2] | Solubility: Soluble in [2] | inhibition at 10 µg/mL (rabbit aorta; [4]) | Rate of inhibition of contraction (rabbit aorta; final concentration 1.0 μg/ml) | Rate of inhibition of contraction (rabbit aorta; final concentration 3.0 μg/ml) | inhibition at 30 µg/mL (rabbit aorta; Oryctolagus cuniculus, final concentration 30.0 μg/ml, read-out: Rate of inhibition of contraction) | inhibition at 0.03 µg/mL ([3]; test solution 0.03 μg/ml) | inhibition at 0.1 µg/mL ([3]; test solution 0.1 μg/ml) | inhibition at 0.3 µg/mL ([3]; test solution 0.3 μg/ml)
1 | OC1C(Cl)(Cl)C(=C(Cl)Cl)C2(OC2Cl)C1(Cl)Cl (stereo not drawn) [KS-504a] | 37% | 59% | 82% | 300 mg/kg | readily decomposed | pyridine, monoethanolamine, etc. and alkaline | water, acidic water | methanol, n-butanol, chloroform; also recorded: acetone, ethyl acetate; also recorded: dimethylformamide, dimethylsulfoxide; also recorded: benzene, acetic acid, hexane |  |  |  |  |  |  | 
2 | OC1C(Cl)(Cl)C(=C(Cl)Cl)C2(OC2Cl)C1(Cl)Cl (stereo not drawn) [KS-504b] |  |  |  |  | readily decomposed | pyridine, monoethanolamine, etc. and alkaline | water, acidic water | methanol, chloroform, acetone, ethyl; also recorded: acetate, acetonotrile; also recorded: dimethylsulfoxide | 100% | 76% | 80% |  |  |  | 
3 | OC1C(Cl)(Cl)C(=C(Cl)Cl)C(O)(C(Cl)Cl)C1(Cl)Cl (stereo not drawn) [KS-504d] |  |  |  |  | readily decomposed | pyridine, monoethanolamine, etc. and alkaline |  | acetone, ethyl acetate, acetonitrile; also recorded: benzene, methanol, chloroform; also recorded: hexane, water, acidic water | 6.9% |  |  | 91% |  |  | 
4 | O=CC1=C(C(Cl)(Cl)Cl)C(Cl)(Cl)C(O)C1(Cl)Cl (stereo not drawn) [KS-504e] |  |  |  |  | readily decomposed | pyridine, monoethanolamine, etc. and alkaline | water, acidic water | methanol, chloroform, acetone, ethyl; also recorded: acetate, acetonitrile; also recorded: dimethylsulfoxide |  |  |  |  | 15% | 62% | 100%
